Active and inactive are the calls of the source. No cut-off for these calls is given here.
Key:
Assay type in all cases: functional, cell-based
[1] = system: HCT-116; test: Cytotoxicity against human HCT116 cells
[2] = system: MCF7; test: Cytotoxicity against human MCF7 cells
[3] = system: HeLa; test: Cytotoxicity against human HeLa cells assessed as effect on phenotypic features by automated microscopy and image analysis

SMILES	IC50 [1]	IC50 [2]	Activity [3]
CC[C@H](C)[C@@H]1NC(=O)[C@@H](CC(C)C)NC(=O)[C@H]([C@@H](C)O)NC(=O)[C@H](CO)NC(=O)[C@@H](CC(C)C)NC(=O)CCNC1=O	> 1000 µM	–	–
CC[C@H](C)[C@@H]1NC(=O)[C@@H](CC(C)C)NC(=O)[C@H]([C@@H](C)O)NC(=O)[C@H](CO)NC(=O)[C@@H](CC(C)C)NC(=O)C[C@@H](CCCCCCC(C)C)OC1=O	50 µM	6 µM	–
CCCCCCCCCC[C@@H]1CC(=O)N[C@H](CC(C)C)C(=O)N[C@@H](CO)C(=O)N[C@@H]([C@@H](C)O)C(=O)N[C@H](CC(C)C)C(=O)N[C@@H]([C@@H](C)CC)C(=O)O1	32 µM	–	–
CCCCCCC[C@@H]1CC(=O)N[C@H](CC(C)C)C(=O)N[C@@H](CO)C(=O)N[C@@H]([C@@H](C)O)C(=O)N[C@H](CC(C)C)C(=O)N[C@@H]([C@@H](C)CC)C(=O)O1	–	4 µM	–
CC[C@H](C)[C@@H]1NC(=O)[C@@H](CC(C)C)NC(=O)[C@H]([C@@H](C)O)NC(=O)[C@H](CO)NC(=O)[C@@H](CC(C)C)NC(=O)CCC(=O)C1=O	> 1000 µM	–	–
CC[C@H](C)[C@@H]1NC(=O)[C@@H](CC(C)C)NC(=O)[C@H]([C@@H](C)O)NC(=O)[C@H](CO)NC(=O)[C@@H](CC(C)C)NC(=O)C[C@@H](CCCCCCCCC(C)C)OC1=O	17 µM	–	–
CCCCCC/C=C\CCC[C@@H]1CC(=O)N[C@H](CC(C)C)C(=O)N[C@@H](CO)C(=O)N[C@@H]([C@@H](C)O)C(=O)N[C@H](CC(C)C)C(=O)N[C@@H]([C@@H](C)CC)C(=O)O1	28 µM	4 µM	Active
CCCCCCCCC[C@@H]1CC(=O)N[C@H](CC(C)C)C(=O)N[C@@H](CO)C(=O)N[C@@H]([C@@H](C)O)C(=O)N[C@H](CC(C)C)C(=O)N[C@@H]([C@@H](C)CC)C(=O)O1	22 µM	3 µM	–
CCCCCCCCCCC[C@@H]1CC(=O)N[C@H](CC(C)C)C(=O)N[C@@H](CO)C(=O)N[C@@H]([C@@H](C)O)C(=O)N[C@H](CC(C)C)C(=O)N[C@@H]([C@@H](C)CC)C(=O)O1	18 µM	–	Active

— ChEMBL document CHEMBL3576857, “Biosynthetic products from a nearshore-derived gram-negative bacterium enable reassessment of the kailuin depsipeptides” (J Nat Prod, 2015)
